Numbers after ± are expanded uncertainties.
Test: excess molar enthalpy (molar enthalpy of mixing); xn = mol fraction of the nth substance listed
Details: 303.15 K, 101 kPa, Liquid, Flow calorimetry

C1COCCO1 [1,4-dioxane] + C1CCCCC1
Details | excess molar enthalpy [kJ/mol]
x1 = 0.0547 | 0.37 ± 0.012
x1 = 0.153 | 0.883 ± 0.013
x1 = 0.2558 | 1.26 ± 0.014
x1 = 0.3916 | 1.537 ± 0.015
x1 = 0.5072 | 1.59 ± 0.016
x1 = 0.6511 | 1.45 ± 0.015
x1 = 0.7029 | 1.32 ± 0.014
x1 = 0.7606 | 1.12 ± 0.014
x1 = 0.8499 | 0.79 ± 0.013
x1 = 0.9288 | 0.406 ± 0.012

C1COCCO1 [1,4-dioxane] + CCCCCCCC
Details | excess molar enthalpy [kJ/mol]
x1 = 0.0577 | 0.412 ± 0.012
x1 = 0.1002 | 0.675 ± 0.013
x1 = 0.151 | 0.956 ± 0.013
x1 = 0.2075 | 1.22 ± 0.014
x1 = 0.2491 | 1.4 ± 0.015
x1 = 0.3048 | 1.57 ± 0.016
x1 = 0.3676 | 1.739 ± 0.017
x1 = 0.4092 | 1.806 ± 0.017
x1 = 0.4536 | 1.874 ± 0.017
x1 = 0.507 | 1.892 ± 0.017
x1 = 0.5583 | 1.895 ± 0.017
x1 = 0.6089 | 1.833 ± 0.017
x1 = 0.6599 | 1.755 ± 0.017
x1 = 0.6959 | 1.674 ± 0.016
x1 = 0.7553 | 1.506 ± 0.015
x1 = 0.8045 | 1.31 ± 0.015
x1 = 0.8586 | 1.04 ± 0.014
x1 = 0.8997 | 0.802 ± 0.013
x1 = 0.9352 | 0.548 ± 0.013

CCCCCCCC [octane] + C1CCCCC1
Details | excess molar enthalpy [kJ/mol]
x1 = 0.0275 | 0.052 ± 0.01
x1 = 0.0507 | 0.08 ± 0.01
x1 = 0.0896 | 0.126 ± 0.01
x1 = 0.1482 | 0.173 ± 0.01
x1 = 0.1912 | 0.206 ± 0.01
x1 = 0.2487 | 0.23 ± 0.01
x1 = 0.2922 | 0.246 ± 0.01
x1 = 0.3709 | 0.259 ± 0.01
x1 = 0.4676 | 0.258 ± 0.01
x1 = 0.5738 | 0.24 ± 0.01
x1 = 0.642 | 0.216 ± 0.01
x1 = 0.7256 | 0.18 ± 0.01
x1 = 0.79 | 0.149 ± 0.01
x1 = 0.8267 | 0.124 ± 0.01
x1 = 0.869 | 0.099 ± 0.01
x1 = 0.8976 | 0.075 ± 0.01

From the NIST ThermoML archive (doi:10.1016/j.fluid.2006.03.020)
